The source made the active and inactive calls.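 How the source made its calls: active means IC50 mean at or below 20 µM; inactive means the rest.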 Some results are limits rather than exact numbers.

This test relates to 697 NF-kB-Luc cells, PMA/ionomycin, luciferase luminescence, 16 h. Kind of test: inhibitors of PMA/ionomycin-driven NF-kB luciferase in 697 – 697 B cells, luminescence, set 2, T-cell antigen receptor NF-kB inhibitors, SAR follow-up (AID 504664).
Broadly, the IC50 is the concentration that gives 50% inhibition. `CCCC(=O)NC(c1ccccc1OC)c1ccc2cccnc2c1O` (stereo not given): the IC50 was > 79 µM (inactive).

Regarding `O=C(Nc1ccc2oc(-c3ccncc3)nc2c1)c1ccc([N+](=O)[O-])o1`, the IC50 was > 79 µM (inactive).

Turning to `Cc1cc(NC(=O)c2ccc([N+](=O)[O-])o2)cc(-c2nc3ccccc3o2)c1O`, the IC50 was > 79 µM (inactive).

Consider `O=C(Nc1ccc2c(c1)CCO2)c1ccc([N+](=O)[O-])o1`, for which the IC50 is > 79 µM (inactive).

As for `Cc1cc(NC(=O)c2ccc([N+](=O)[O-])o2)ccc1NC(=O)c1ccco1`, the IC50 is > 79 µM (inactive).

Regarding `CC(=O)NC(c1ccc(C(C)C)cc1)c1ccc2cccnc2c1O` (stereo not given), the IC50 was > 79 µM (inactive).

As to `CCOc1ccc(C(=O)Nc2ccc(NC(=O)c3cc4ccccc4o3)cc2)cc1[N+](=O)[O-]`, the IC50 was > 79 µM (inactive).

Take `CCCCC(=O)NC(c1ccc(Cl)cc1Cl)c1ccc2cccnc2c1O` (stereo not given): the IC50 was > 79 µM (inactive).

Take `CCCC(=O)NC(c1ccc(C)cc1)c1ccc2cccnc2c1O` (stereo not given): the IC50 was > 79 µM (inactive).

In the case of `COc1ccc(C(NC(=O)Cc2ccccc2)c2ccc3cccnc3c2O)cc1OC` (stereo not given), the IC50 was > 79 µM (inactive).

For the compound `Cc1ccc(C)c(NC(=O)c2ccc([N+](=O)[O-])o2)c1`, the IC50 was > 79 µM (inactive).

Regarding `CCCCNC(=O)CCc1nc(-c2ccc(C(C)(C)C)cc2)no1`, the IC50 was 14.6 µM.

`CCOc1ccc(-c2nc(CSCC(=O)NC3CC3)c(C)o2)cc1`: the IC50 is 0.21 µM.

`COc1ccc(C(=O)Nc2ccc(NC(=O)c3cc4ccccc4o3)cc2)cc1Br`: the IC50 was > 79 µM (inactive).

As for `CCCCC(=O)NC(c1ccc(Cl)cc1)c1ccc2cccnc2c1O` (stereo not given), the IC50 is > 79 µM (inactive).

In the case of `CCN(CC)C(=O)CCc1nc(-c2ccc(C(C)(C)C)cc2)no1`, the IC50 was 60.1 µM (inactive).

As to `CCC(=O)NC(c1ccc(C)cc1)c1ccc2cccnc2c1O` (stereo not given), the IC50 was > 79 µM (inactive).

In the case of `CCCC(=O)NC(c1ccccc1)c1ccc2cccnc2c1O` (stereo not given), the IC50 was > 79 µM (inactive).

Regarding `CC(C)(C)c1ccc(-c2noc(CCC(N)=O)n2)cc1`, the IC50 was 0.55 µM.

Take `CCCCC(=O)NC(c1ccccc1)c1ccc2cccnc2c1O` (stereo not given): the IC50 was > 79 µM (inactive).

In the case of `O=C(Nc1nc2c(Br)cc(Br)cc2c(=O)s1)c1ccco1`, the IC50 is 4.57 µM.

For `CCOc1ccc(-c2nc(CS(=O)(=O)CC(=O)NCc3ccc(F)cc3)c(C)o2)cc1`, the IC50 was > 79 µM (inactive).

Consider `CCOc1ccc(-c2nc(CSCC(=O)NCc3ccco3)c(C)o2)cc1`, for which the IC50 was 0.29 µM.

Take `NS(=O)(=O)c1ccc(NC(=O)c2ccc([N+](=O)[O-])o2)cc1`: the IC50 is 58.9 µM (inactive).

Consider `Cc1cc(C)cc(NC(=O)c2ccc([N+](=O)[O-])o2)c1`, for which the IC50 is 31.9 µM (inactive).

In the case of `CN1CCN(c2ccccc2NC(=O)c2ccc([N+](=O)[O-])o2)CC1`, the IC50 was > 79 µM (inactive).

As to `COc1ccc(C(=O)Nc2ccc(NC(=O)c3cc4ccccc4o3)cc2)cc1OC`, the IC50 was > 79 µM (inactive).

For `Cc1cc(NC(=O)c2ccc3c(c2)OCCO3)ccc1NC(=O)c1cc2ccccc2o1`, the IC50 was 12.9 µM.

On to `O=C(Nc1ccc(-c2nc3ncccc3o2)cc1)c1ccc([N+](=O)[O-])o1`, for which the IC50 was > 79 µM (inactive).

As to `CCCCC(=O)NC(c1ccc(N(C)C)cc1)c1ccc2cccnc2c1O` (stereo not given), the IC50 is > 79 µM (inactive).

`O=C(Nc1cccc2ncccc12)c1ccc([N+](=O)[O-])o1`: the IC50 was > 79 µM (inactive).

Take `CCOc1ccc(NC(=O)c2ccc([N+](=O)[O-])o2)cc1`: the IC50 is > 79 µM (inactive).

With `CCN1CCN(c2c(Cl)cccc2NC(=O)c2ccc([N+](=O)[O-])o2)CC1`, the IC50 was 43.7 µM (inactive).

As to `CCC(=O)NC(c1ccc(N(C)C)cc1)c1ccc2cccnc2c1O` (stereo not given), the IC50 is > 79 µM (inactive).

In the case of `COc1ccc(C(NC(=O)CCc2ccccc2)c2ccc3cccnc3c2O)cc1` (stereo not given), the IC50 was > 79 µM (inactive).

For `COc1ccc(C(=O)Nc2ccc(NC(=O)c3cc4ccccc4o3)cc2)cc1[N+](=O)[O-]`, the IC50 is > 79 µM (inactive).

Regarding `COc1cc(NC(=O)c2ccc3c(c2)OCO3)ccc1NC(=O)c1cc2ccccc2o1`, the IC50 was > 79 µM (inactive).

As for `COc1cc(-c2nc3n(n2)C(c2ccc(F)cc2)C2=C(CCCC2=O)N3)cc(OC)c1OC` (stereo not given), the IC50 was 29 µM (inactive).

`CC(=O)N1CCc2cc(NC(=O)c3ccc([N+](=O)[O-])o3)ccc21`: the IC50 was > 79 µM (inactive).

On to `Cc1ccc(NC(=O)c2ccc([N+](=O)[O-])o2)cc1C(F)(F)F`, for which the IC50 is > 79 µM (inactive).

`CCCC(=O)NC(c1ccc(Cl)cc1)c1ccc2cccnc2c1O` (stereo not given): the IC50 was > 79 µM (inactive).

As to `Cc1cc(-c2nc3ncccc3o2)ccc1NC(=O)c1ccc([N+](=O)[O-])o1`, the IC50 was > 79 µM (inactive).

As for `Cc1ccc(NC(=O)c2ccc([N+](=O)[O-])o2)cc1C`, the IC50 was > 79 µM (inactive).

Consider `COc1ccc(C(NC(=O)C(C)C)c2ccc3cccnc3c2O)cc1` (stereo not given), for which the IC50 is > 79 µM (inactive).

Turning to `CCCCC(=O)NC(c1ccc(C)cc1)c1ccc2cccnc2c1O` (stereo not given), the IC50 was > 79 µM (inactive).

Take `CCCC(=O)NC(c1ccc(OC)cc1)c1ccc2cccnc2c1O` (stereo not given): the IC50 was > 79 µM (inactive).

As to `COc1ccc(C(NC(=O)CC(C)C)c2ccc3cccnc3c2O)cc1OC` (stereo not given), the IC50 was > 79 µM (inactive).

Regarding `COc1ccc(C(=O)Nc2ccc(NC(=O)c3cc4ccccc4o3)cc2)cc1Cl`, the IC50 is > 79 µM (inactive).

On to `CNC(=O)CCc1nc(-c2ccccc2)no1`, for which the IC50 is > 79 µM (inactive).

Turning to `Cc1ccc(C(NC(=O)C2CCCCC2)c2ccc3cccnc3c2O)cc1` (stereo not given), the IC50 is > 79 µM (inactive).

Take `COc1ccc(C)cc1NC(=O)c1ccc([N+](=O)[O-])o1`: the IC50 is > 79 µM (inactive).

For the compound `CCCCC(=O)NC(c1ccc(OC)cc1)c1ccc2cccnc2c1O` (stereo not given), the IC50 is > 79 µM (inactive).

Turning to `N#Cc1cccc(NC(=O)c2ccc([N+](=O)[O-])o2)c1`, the IC50 is > 79 µM (inactive).

For `COc1cc2nc(NC(=O)c3ccccc3)sc(=O)c2cc1OC`, the IC50 was 0.86 µM.

Regarding `CCCOc1ccc(C(=O)Nc2ccc(NC(=O)c3cc4ccccc4o3)cc2)cc1`, the IC50 is > 79 µM (inactive).

`CN(C)C(=O)CCc1nc(-c2ccc(C(C)(C)C)cc2)no1`: the IC50 was 6.56 µM.

Take `CC(=O)NC(c1ccc2ccccc2c1)c1ccc2cccnc2c1O` (stereo not given): the IC50 is > 79 µM (inactive).

Turning to `O=C(Nc1ccc2oc(-c3cccnc3)nc2c1)c1ccc([N+](=O)[O-])o1`, the IC50 was > 79 µM (inactive).

For the compound `CCCC(=O)NC(c1ccccc1Cl)c1ccc2cccnc2c1O` (stereo not given), the IC50 is > 79 µM (inactive).

For `O=C(Nc1ccc(N2CCCC2)c(Cl)c1)c1ccc([N+](=O)[O-])o1`, the IC50 was 61.7 µM (inactive).

Take `CNC(=O)CCc1nc(-c2ccc(C(C)(C)C)cc2)no1`: the IC50 was 0.03 µM.

For the compound `CC(C)CC(=O)NC(c1ccccc1)c1ccc2cccnc2c1O` (stereo not given), the IC50 was > 79 µM (inactive).

As to `CC(C)(C)NC(=O)CCc1nc(-c2ccc(C(C)(C)C)cc2)no1`, the IC50 was 2.5 µM.

On to `CCCCC(=O)NC(c1ccc(C(C)C)cc1)c1ccc2cccnc2c1O` (stereo not given), for which the IC50 was > 79 µM (inactive).

On to `Cc1ccc2nsnc2c1NC(=O)c1ccc([N+](=O)[O-])o1`, for which the IC50 was > 79 µM (inactive).

For `CCCC(=O)NC(c1ccc(C(C)C)cc1)c1ccc2cccnc2c1O` (stereo not given), the IC50 is > 79 µM (inactive).

Turning to `Cc1ccc(C(NC(=O)C(C)C)c2ccc3cccnc3c2O)cc1` (stereo not given), the IC50 is > 79 µM (inactive).

For the compound `CC(C)c1ccc(C(NC(=O)C2CCCCC2)c2cc([N+](=O)[O-])c3cccnc3c2O)cc1` (stereo not given), the IC50 was > 79 µM (inactive).

As to `CCNC(=O)CCc1nc(-c2ccc(C(C)(C)C)cc2)no1`, the IC50 was under 0.16 µM.

On to `CC(C)c1ccc(C(NC(=O)C2CCCCC2)c2ccc3cccnc3c2O)cc1` (stereo not given), for which the IC50 is > 79 µM (inactive).

`COc1ccccc1C(NC(C)=O)c1ccc2cccnc2c1O` (stereo not given): the IC50 was > 79 µM (inactive).

Take `Cc1cccc(NC(=O)c2ccc([N+](=O)[O-])o2)c1C`: the IC50 is > 79 µM (inactive).

Regarding `CC(=O)N1CCN(c2ccc(NC(=O)c3ccc([N+](=O)[O-])o3)cc2Cl)CC1`, the IC50 is 62.3 µM (inactive).

In the case of `CCCCC(=O)NC(c1ccc(N(CC)CC)cc1)c1ccc2cccnc2c1O` (stereo not given), the IC50 is > 79 µM (inactive).

For `CC(C)CC(=O)NC(c1ccc(C(C)C)cc1)c1ccc2cccnc2c1O` (stereo not given), the IC50 was > 79 µM (inactive).

The values are drawn from PubChem BioAssay AID504664 (Sanford-Burnham Center for Chemical Genomics, 2011).
